Patent publication US9283199B2, “Halogenated aliphatic carboxylic acids, oligomers and/or polymers thereof and their use in devitalizing external and internal neoplasms” (Cimas Limited, priority 2009, dated 2016)
Like-named read-outs stand apart in the source and are kept apart here.

Experiments:
[1] = in vivo; cited from earlier work
[2] = cited from earlier work
[3] = test system: benign, viral, pre-malignant, non-metastasizing malignant and mucosal tumor lesions; assay: Clinical study of topical DPA / DPA oligomer treatment of skin pathologies, long term follow-up (Example 1); format: in vivo, human; conditions: all tumor types, 2-8 years follow-up
Description: Patients suffering from benign tumors, viral warts or mucosal membraneus tumors were administered with the tetramer form of DPA. In some cases, DPA, as a monomer, was used. Patients suffering from premalignant or malignant tumors were administered with longer oligomers of DPA.
In most cases, the DPA monomer or oligomer was administered only once and without anesthesia or other special conditions. Only in cases of patients suffering from Recklinghausen disease (a multiple form of peripheral Neurofibromatosis), when the number of skin tumor lesions was more than 100, multiple treatment sessions were performed. […]
The safety of DPA oligomer treatment was assessed by evaluating the treated skin lesion appearance, local skin reaction, vital sign measurements, adverse events and concomitant medications taken by the patient. […]
At the 3-week, 6-week and 12-week post-treatment visit(s), a clinical assessment was performed to determine whether treated lesions were visible at the target site. Pigmented lesions, suspected of being malignant, were further evaluated microscopically by the excision of a biopsy sample with a 3 mm margin from the lesion, using the radioelectro technique, and histopathologically examining the sample for evidence of residual or recurrence of tumor. […]

[4] = in vivo; cited from earlier work; remark: listed apart in the source
[5] = Storage stability of DPA; format: physicochemical; conditions: stored in sealed brown glass containers between −4° C. and +50° C.

CC(Cl)(Cl)C(=O)O [DPA, 2,2-Dichloropropanoic acid]
half-life in human blood [1]: 36 to 72 h | solubility in water ([2]; DPA and all of its known breakdown products): dissolve easily in water | solubility in water ([2]; at 25° C.): 90 g/100 ml | solubility in organic solvents and lipids [2]: insoluble | Very good result (++++) % ([3]; Total): 82.1% | satisfactory level of clinical results observed, % of the tumors [3]: 99.1% | accumulation in animal tissues [4]: does not build up in animal tissues | chemoanalytical and biological (efficacy) stability [5]: at least 5 years
